Source: patent publication US20250179126A1, “A NOVEL PEPTIDE FROM A PHOTOSYNTHETIC BACERIUM DIRECTLY TARGETS MITOCHONDRIA TO TRIGGER APOPTOSIS IN ADVANCED PROSTATE CANCER CELLS” (priority 2022, published 2025)

Test system: Mel-2 cells
Test: Aldolase A secretion and expression in Mel-2 cells treated with purified azurin
Type: cell-based, human
Conditions: Mel-2, purified azurin 100 nM, 10 μM, 1 mM, 30 min
Description: FIG. 18A-18G: Induction of aldolase A secretion by host cells in the presence of P. aeruginosa. 18A. Human host cells (cancer and normal) and P. aeruginosa were co-incubated for 30 min at a concentration of 500,000 human cells/ml with P. aeruginosa at OD=0.3. Aldolase secretion varied between the co-cultures with cancer and normal cells. […] 18B Correlation between the aldolase A and azurin levels in co-cultures of P. aeruginosa with cancer or normal cells. 18C Cancer cells (Mel-2 and MDA-MB-231) and P. aeruginosa (WT and azunull mutant) were co-incubated for 30 min at a concentration of 500,000 human cells/ml with P. aeruginosa at OD=0.3. Secretion of aldolase into the culture supernatant was assessed by western blot analysis. […]
Aldolase A gene expression in MDA-MB-231 (black bars) and Mel-2 (white bars) cells was determined by RT-PCR (22A). […] 22B: Intracellular levels of aldolase A were assessed by western blot analysis with an anti-aldolase A antibody. […]
Western blotting: After running the NuPAGE, proteins were transferred to PVDF membranes (BioRad Laboratories Inc, Hercules, CA) which were blocked in SuperBlock (T20 TBS buffer, Thermo Fisher) for one hour. […] The signal was detected using enhanced chemiluminescence (ECL, Thermo Fisher Scientific). Quantitative analysis of the bands was performed with a computer-assisted imaging densitometer (UN-SCAN-IT gel version 5.1). […]

## azurin: 14 kDa periplasmic copper protein of 128 amino acids from P. aeruginosa; purified recombinant
  aldolase A gene expression and intracellular levels: without increasing gene expression or intracellular levels of aldolase A
  aldolase A secretion into culture medium (western blot): secreted a considerable amount of human aldolase A
